≈ marks a conversion by molar mass, not a printed value. Calls of active or inactive are those of the source. The rule behind the calls is not given here.
What was measured:
[1] = Inhibition of PS2 in spinach chloroplasts assessed as photoreduction of DCPIP incubated for 2 mins in dark condition prior to testing by spectrophotometry; design: species or system Spinacia oleracea
Mycobacterium kansasii = assay: Antimycobacterial activity against Mycobacterium kansasii DSM 44162 after 7 days by two-fold serial dilution method; format: functional; settings: DSM 44162, 168 h
[2] = Cytotoxicity against human THP1 cells after 24 hrs by lactate dehydrogenase assay; format: cell-based; settings: THP-1 cells, read-out: LD50
[3] = Lipophilicity, log K of the compound by RP-HPLC analysis; format: physicochemical
Spinacia oleracea [4] = assay: Inhibition of PS2 in spinach chloroplasts assessed as photoreduction of DCPIP measured remaining activity incubated for 2 mins in dark condition prior to testing by spectrophotometry relative to control; values are per cent of control; design: concentration or dose not given beside the values
[5] = tested on: Mycolicibacterium smegmatis; assay: Antimycobacterial activity against Mycobacterium smegmatis ATCC 700084 after 3 days by two-fold serial dilution method; format: functional; settings: ATCC 700084, 72 h
Spinacia oleracea [6] = assay: Inhibition of PS2 in spinach chloroplasts assessed as photoreduction of DCPIP measured remaining activity incubated for 2 mins in dark condition prior to testing by spectrophotometry in presence of diphenylcarbazide relative to control; values are per cent of control; design: concentration or dose not given beside the values
Mycobacterium marinum [7] = assay: Antimycobacterial activity against Mycobacterium marinum CAMP 5644 after 21 days by two-fold serial dilution method; format: functional; settings: CAMP 5644, 504 h
Spinacia oleracea [8] = assay: Inhibition of PS2 in spinach chloroplasts assessed as reduction in chlorophyll a fluorescence emission at 0.1 to 1.2 mmol/L by fluorescence spectrophotometry
Mycobacterium marinum [9] = assay: Ratio of isoniazid MIC to compound MIC for Mycobacterium marinum CAMP 5644; format: functional
[10] = tested on: Mycolicibacterium smegmatis; assay: Ratio of isoniazid MIC to compound MIC for Mycobacterium smegmatis ATCC 700084; format: functional

SMILES	IC50 [1] [µM]	MIC (Mycobacterium kansasii) [µM]	CC50 at 24 h [2] [µM]	log K [3]	residual activity (Spinacia oleracea [4]) [%]	MIC [5] [µM]	residual activity (Spinacia oleracea [6]) [%]	MIC (Mycobacterium marinum [7]) [µM]	inhibition (Spinacia oleracea [8])	Ratio (Mycobacterium marinum [9])	Ratio [10]
O=C(Nc1ccc(Cl)cc1)c1ccc2ccccc2c1O	10.8	26.8 (≈ 7.98 µg/mL)	> 20	1.1314	10	215 (≈ 64 µg/mL)	95	215 (≈ 64 µg/mL)			
O=C(Nc1ccccc1C(F)(F)F)c1ccc2ccccc2c1O	126	> 773	> 20	0.6899	10	> 773	95	96.6 (≈ 32 µg/mL)	Active		
O=C(Nc1cccc(F)c1)c1ccc2ccccc2c1O	15.6	28.4 (≈ 7.99 µg/mL)	> 10	1.0763	10	910 (≈ 256 µg/mL)	95	28.4 (≈ 7.99 µg/mL)		16	
O=C(Nc1ccc(C(F)(F)F)cc1)c1ccc2ccccc2c1O	36.5	23.3 (≈ 7.72 µg/mL)	0.6	1.1158	10	> 748	95	187 (≈ 62 µg/mL)			
O=C(Nc1cccc(Cl)c1)c1ccc2ccccc2c1O	7.9	26.8 (≈ 7.98 µg/mL)	> 20	1.1615	10	> 860	95	107 (≈ 31.9 µg/mL)			
O=C(Nc1ccc([N+](=O)[O-])cc1)c1ccc2ccccc2c1O	24	51.9 (≈ 16 µg/mL)		0.5298	10	> 830	95	104 (≈ 32.1 µg/mL)			
COc1cccc(NC(=O)c2ccc3ccccc3c2O)c1	23.5	> 873		1.2849	10	> 873	95	54.5 (≈ 16 µg/mL)			
O=C(Nc1ccccc1Br)c1ccc2ccccc2c1O	61.9	> 748		0.9234	10	> 748	95	> 748			
COc1ccc(NC(=O)c2ccc3ccccc3c2O)cc1	79.5	> 873		1.1882	10	> 873	95	> 873			
O=C(Nc1ccc(Br)cc1)c1ccc2ccccc2c1O	9.6	23.3 (≈ 7.97 µg/mL)	> 20	1.1224	10	46.7 (≈ 16 µg/mL)	95	46.7 (≈ 16 µg/mL)			2.5
O=C(Nc1ccccc1[N+](=O)[O-])c1ccc2ccccc2c1O		> 830		0.5014	10	> 830	95	> 830			
CC[C@@]1(O)C(=O)OCc2c1cc1n(c2=O)Cc2cc3ccccc3nc2-1 [CAMPTOTHECIN]			0.16								
Cc1ccccc1NC(=O)c1ccc2ccccc2c1O	62.8	115 (≈ 31.9 µg/mL)	> 20	1.1176	10	231 (≈ 64.1 µg/mL)	95	28.8 (≈ 7.99 µg/mL)		16	
NNC(=O)c1ccncc1 [ISONIAZID]						117 (≈ 16 µg/mL)		467 (≈ 64 µg/mL)			
O=C(Nc1ccccc1)c1ccc2ccccc2c1O	31.3	15.2 (≈ 4 µg/mL)	> 20	1.2302	10	243 (≈ 64 µg/mL)	95	60.7 (≈ 16 µg/mL)			
CN(C)C(=O)Nc1ccc(Cl)c(Cl)c1 [DCMU]	1.9										
O=C(Nc1ccc(F)cc1)c1ccc2ccccc2c1O	20.3	14.2 (≈ 3.99 µg/mL)	> 10	1.0533	10	> 910	95	114 (≈ 32.1 µg/mL)			
O=C(Nc1cccc([N+](=O)[O-])c1)c1ccc2ccccc2c1O	19.9	> 830		0.6609	10	> 830	95	> 830			
Cc1ccc(NC(=O)c2ccc3ccccc3c2O)cc1	28.7	57.7 (≈ 16 µg/mL)		1.4008	10	923 (≈ 256 µg/mL)	95	115 (≈ 31.9 µg/mL)			
O=C(Nc1cccc(C(F)(F)F)c1)c1ccc2ccccc2c1O	5.3	> 748	1	1.127	10	> 748	95	46.7 (≈ 15.5 µg/mL)			
O=C(Nc1ccccc1F)c1ccc2ccccc2c1O	57	> 910		0.8296	10	228 (≈ 64.1 µg/mL)	95	56.8 (≈ 16 µg/mL)			
Cc1cccc(NC(=O)c2ccc3ccccc3c2O)c1	20	28.8 (≈ 7.99 µg/mL)	> 20	1.4254	10	57.7 (≈ 16 µg/mL)	95	28.8 (≈ 7.99 µg/mL)		16	2.5
O=C(Nc1ccccc1Cl)c1ccc2ccccc2c1O	29.4	860 (≈ 256 µg/mL)		0.8764	10	860 (≈ 256 µg/mL)	95	107 (≈ 31.9 µg/mL)			
COc1ccccc1NC(=O)c1ccc2ccccc2c1O	200	> 873		1.4716	10	> 873	95	> 873			
O=C(Nc1cccc(Br)c1)c1ccc2ccccc2c1O	8.2	> 748	> 20	1.1784	10	> 748	95	> 748			
